For the data set the following is noted: after >20 h storage time in the solvents of the table. As for the experimental part: Suitable reaction temperatures will typically be high enough to keep the solution or melt in the liquid form and not high enough to cause loss of the species 1, 2, 3, or 5 in FIGS. 1 and 2. The reaction temperature is less than 180° C., 160° C., 140° C. […] Higher reaction temperatures may be appropriate when more sterically hindered alcohols are used as reactants if longer reaction times are not acceptable.

The text below walks through data of patent US20100123097A1, “Method for Making Carbonates and Esters” (SABIC […] IP BV, priority 2008, published 2010).

In the case of `COC(=O)c1ccccc1OC(=O)Oc1ccccc1C(=O)OC` [BMSC, bismethyl salicyl carbonate], the “Stability in these solvents (MS formation)” value is recorded as “no detectable MS formation”.
